This note sets out measurements from US20040142007A1, “Cosmetic preparations containing an extract of germinating plants” (priority 2001, published 2004).

The subject of the assay is B16 melanocytes. The assay can be described thus: Inhibition of melanin synthesis in B16 melanocytes. The format is cell-based. The settings on record: 0.5% w/v; 3 days; control = 100%. The protocol: To carry out the test, melanocytes (B16 cell line) were incubated for 3 days at 37° C./5% CO2 in a standard growth medium for cell cultures containing foetal calf serum (FCS). The growth medium was then replaced by a standard medium with which the substances to be tested were adjusted to different concentrations. After incubation for 3 days, the number of living cells was determined through the cell protein content (Bradford's method) and the content of synthesized melanin—recorded in the cell homogenizate at an optical density of 475 nm. The results are expressed in % against a control of pure cell culture medium.

Compound `OC[C@H]1O[C@@H](Oc2ccc(O)cc2)[C@H](O)[C@@H](O)[C@@H]1O` [Arbutin] gave a Cell protein content of 81% and a Melanin content of 35%.
